Like-named read-outs stand apart in the source and are kept apart here.
Key:
[1] = logP by HPLC on reversed-phase column (C 18), EEC Directive 79/831 Annex V.A8; type: physicochemical; details: 40° C., 0.1% aqueous formic acid and acetonitrile; for chromatographic logP: reversed-phase HPLC column (C 18)
Description: Temperature: 40° C.; Mobile phases: 0.1% aqueous formic acid and acetonitrile; linear gradient from 10% acetonitrile to 90% acetonitrile.
Calibration was carried out using unbranched alkan-2-ones (comprising 3 to 16 carbon atoms) with known logP values (determination of the logP values by the retention times using linear interpolation between two successive alkanones).

[2] = test system: Aedes aegypti larvae; assay: In vivo protective test on Aedes aegypti (AEDSAE U), larvae mortality; details: concentration and time not stated
Description: In Vivo Protective Test on Aedes Aegypti (AEDSAE U)
To produce a suitable preparation of the active compound, the active compound is mixed with the stated amount of solvent, and the concentrate is diluted with staining water to the desired concentration.
Aedes aegypti larvae are pipetted with a preparation of active ingredient of the desired concentration.
After the specified period of time, mortality in % is determined. 100% means that all larvae have been killed, a 0% means that none of the larvae have been killed.

[3] = test system: Heliotis virescens; assay: Test on Heliotis virescens (HELIVI spray application), egg mortality on soybean leaf sections; type: in vivo; details: eggs on sprayed soybean leaf sections; concentration and time not stated
Text: Heliotis virescens—Test on Heliotis virescens (HELIVI Spray Application)
To produce a suitable preparation of the active compound, 1 part by weight of active compound is mixed with the stated amount of solvent and emulsifier, and the concentrate is dilutes with emulsifier-containing water to the desired concentration.
Soybean (Glycine max.) leaf sections are sprayed with a preparation of the active ingredient of the desired concentration. Once dry, the leaf sections are infested with eggs of cotton bollworm (Heliotis virescens).
After the specified period of time, mortality in % is determined. 100% means that all eggs have been killed and 0% means that none of the eggs have been killed.

[4] = HPLC reversed-phase C 18, linear gradient 10% to 90% acetonitrile

SMILES | log p (HCOOH) [1, 4] | other results
CCc1cc(-c2ccc(Cl)c(Cl)c2)ccc1N=CN(C)CC [Compound 54] | 2.37 | activity (mortality of larvae) [2]: good activity
CCN(C)C=Nc1ccc(-c2ccc(C(F)(F)F)cc2)cc1F [Compound 26] | 1.87 | activity (mortality of larvae) [2]: good activity; activity (mortality of eggs) [3]: good activity
CCN(C)C=Nc1cc(F)c(-c2ccc(Cl)cc2)cc1C [Compound 99] | 2.23 | activity (mortality of larvae) [2]: good activity
CCN(C)C=Nc1ccc(-c2ccc(C=NOC)cc2)cc1F [Compound 77] | 1.73 | activity (mortality of larvae) [2]: good activity
CCN(C)C=Nc1ccc(-c2ccc(OC(F)(F)F)cc2)c(Cl)c1 [Compound 100] | 2.15 | activity (mortality of larvae) [2]: good activity
CCN(C)C=Nc1ccc(-c2ccc(Cl)c(C(F)(F)F)c2)cc1Cl [Compound 18] | 2.19 | activity (mortality of larvae) [2]: good activity
Cc1cc(-c2ccc(Cl)cc2)c(F)cc1N=CN(C)C(C)C [Compound 104] | 2.22 | activity (mortality of larvae) [2]: good activity
CCN(C)C=Nc1ccc(-c2ccc(C(F)(F)F)cc2)cc1C [Compound 127] | 2.17 | activity (mortality of larvae) [2]: good activity
CCN(C)C=Nc1ccc(-c2ccc(F)c(Cl)c2)cc1F [Compound 9] | 1.78 | activity (mortality of larvae) [2]: good activity
CCN(C)C=Nc1ccc(-c2cccc(Cl)c2)cc1C [Compound 128] | 2.01 | activity (mortality of larvae) [2]: good activity
CCN(C)C=Nc1cc(C)c(-c2ccc(Oc3ccccc3)cc2)cc1C [Compound 47] | 2.56 | activity (mortality of larvae) [2]: good activity
CCN(C)/C=N/c1cc(C)c(-c2ccc(C(C)(C)C)cc2)cc1C [Compound 8, N′-(4′-tert-butyl-2,5-dimethylbiphenyl-4-yl)-N-ethyl-N-methylimidoformamide] | – | chromatographic logP ([1]; HPLC reversed-phase C 18, linear gradient 10% to 90% acetonitrile, read-out: log p (HCOOH)): 2.67; chromatographic logP ([1]; pH 2.3, HPLC, read-out: log P (pH 2.3)): 2.67
CCN(C)C=Nc1ccc(-c2ccc(F)c(Cl)c2)cc1Cl [Compound 3] | 1.92 | –
CCN(C)C=Nc1cc(C)c(-c2ccc(OCc3ccccc3)cc2)cc1C [Compound 48] | 2.55 | –
CCN(C)C=Nc1cc(C)c(-c2ccc(C)cc2)cc1C [Compound 131] | 2.01 | –
CCN(C)C=Nc1cc(C)c(-c2ccc(F)cc2)cc1C [Compound 22] | 1.95 | –
CCN(C)C(S)=Nc1cc(C)c(-c2ccc(C(C)(C)C)cc2)cc1C [Compound 28] | 4.58 | –
CCN(C)C=Nc1ccc(-c2ccc(Cl)cc2Cl)cc1Cl [Compound 69] | 2.32 | –
CCN(C)C=Nc1cc(C)c(-c2cccc3ccccc23)cc1C [Compound 135] | 2.13 | –
CC(C)N(C)C=Nc1ccc(-c2cccc(Cl)c2)c(Cl)c1 [Compound 101] | 2.04 | –
CCN(C)C=Nc1ccc(-c2ccc(OC)c(OC)c2OC)cc1C(F)(F)F [Compound 11] | 1.84 | –
CCN(C)C=Nc1ccc(-c2ccc(COC)cc2)cc1C [Compound 37] | 1.59 | –
COc1ccc(-c2cc(OC)c(N=CN(C)C(C)C)cc2OC)cc1Cl [Compound 102] | 1.95 | –
CCN(C)C=Nc1ccc(-c2ccc(Cl)cc2C)cc1Cl [Compound 113] | 2.03 | –
CCN(C)C=Nc1ccc(-c2ccc(Cl)c(Cl)c2)cc1C [Compound 32] | 2.21 | –

SMILES | log p (HCOOH) [1, 4] | other results
CCN(C)C=Nc1ccc(-c2ccc(Cl)c(C)c2)cc1Cl [Compound 110] | 2.13 | –
CCN(C)C=Nc1ccc(-c2ccc(Cl)c(C(F)(F)F)c2)cc1C(F)(F)F [Compound 19] | 2.90 | activity (mortality of larvae) [2]: good activity
CCN(C)C=Nc1ccc(-c2ccc(OCc3ccccc3)cc2)cc1C [Compound 36] | 2.46 | –
CCN(C)C=Nc1ccc(-c2ccc(C(C)(C)C)cc2)cc1F [Compound 6] | 2.29 | –
CCN(C)C=Nc1ccc(-c2ccc(Cl)cc2C)cc1C [Compound 111] | 2.23 | –
CCc1cc(-c2ccc(C(C)(C)C)cc2)ccc1N=CN(C)CC [Compound 7] | 2.66 | –
CCN(C)C=Nc1cc(C)c(-c2cccc(C(C)C)c2)cc1C [Compound 178] | 2.42 | –
CCN(C)C=Nc1ccc(-c2ccc(C(C)(C)C)cc2)cc1C [Compound 129] | 2.67 | activity (mortality of larvae) [2]: good activity
CCON=C(C)c1ccc(-c2cc(C)c(N=CN3CCCCC3)cc2C)cc1 [Compound 141] | 2.22 | –
Cc1ccc(-c2cc(C)c(N=CN3CCCC3)cc2C)cc1Cl [Compound 150] | 2.37 | –
CCN(C)C=Nc1ccc(-c2ccc(Cl)cc2Cl)cc1F [Compound 86] | 2.05 | –
CCN(C)C=Nc1ccc(-c2ccc(F)c(C)c2)cc1C(F)(F)F [Compound 82] | 2.20 | –
CCN(C)C=Nc1ccc(-c2ccc(Br)cc2)cc1C(F)(F)F [Compound 80] | 2.24 | –
CCN(C)C=Nc1ccc(-c2ccc(OC)c(OC)c2)cc1F [Compound 95] | 1.41 | –
CCN(C)C=Nc1ccc(-c2ccc(C(F)(F)F)cc2)cc1Cl [Compound 24] | 1.99 | –
Cc1cc(-c2ccc(C(C)(C)C)c(F)c2)c(C)cc1N=CN(C)C(C)C [Compound 169] | 2.74 | –
CCN(C)C=Nc1cc(C)c(-c2cc(OC)c(OC)c(OC)c2)cc1C [Compound 39] | 1.68 | –
CCN(C)C=Nc1ccc(-c2ccc(OC)cc2)cc1F [Compound 88] | 1.59 | –
C=CCN(C)C=Nc1cc(C)c(-c2ccc(C(C)=NOCC)cc2)cc1C [Compound 140] | 2.60 | –
CCN(C)C=Nc1ccc(-c2ccc(C#N)cc2)cc1C [Compound 130] | 1.54 | –
CC(C)N(C)C=Nc1ccc(-c2ccc(OC(F)(F)F)cc2)c(Cl)c1 [Compound 105] | 2.42 | activity (mortality of larvae) [2]: good activity
CCN(C)C=Nc1cc(C)c(-c2ccc(C(F)(F)F)c(Cl)c2)cc1C [Compound 142] | 2.59 | –
CCN(C)C=Nc1ccc(-c2ccc(C(C)(C)C)cc2)cc1Cl [Compound 1] | 2.44 | –
CCc1cc(-c2ccc(Oc3ccccc3)cc2)ccc1N=CN(C)CC [Compound 59] | 2.32 | –

Source: patent US7999137B2, “Pesticide bi-phenyl-amidine derivatives” (Bayer Cropscience AG, priority 2006, dated 2011)
